Test results from PMC9457730, “Ajuforrestin A, an Abietane Diterpenoid from Ajuga ovalifolia var. calanthe, Induces A549 Cell Apoptosis by Targeting SHP2” (Molecules, 2022).

Legend:
[1] = molecular target: T1, SHP1 (Homo sapiens, UniProt P29350); assay: SHP1 catalytic activity in vitro (DiFMUP substrate); format: biochemical; conditions: for inhibitory effect on SHP1 catalytic activity: at high concentrations
T1 construct: GST; made in house; host or cells: Escherichia coli BL21
Experimental: (§1) Escherichia coli BL21 was used to express SHP1 and SHP2 protein and proteins were purified with GST tag. In total, 15 nM SHP1 or SHP2 purified protein, a test compound (10 μM) or DMSO and reaction buffer in 100 μL constitute the reaction system. DiFMUP (10 μM) was added to the reaction system to initiate the reaction. The inhibitory effects of compounds 1–3 were detected by Varioskan Lux with 355 nm excitation and 460 nm emission wavelengths.

[2] = molecular target: T2, SHP2 (Homo sapiens, UniProt Q06124); assay: SHP2 catalytic activity in vitro (DiFMUP substrate); format: biochemical; design: GST; made in house; host or cells: Escherichia coli BL21; conditions: 15 nM purified SHP2, DiFMUP 10 μM
T2 sequence (Q06124 1-593): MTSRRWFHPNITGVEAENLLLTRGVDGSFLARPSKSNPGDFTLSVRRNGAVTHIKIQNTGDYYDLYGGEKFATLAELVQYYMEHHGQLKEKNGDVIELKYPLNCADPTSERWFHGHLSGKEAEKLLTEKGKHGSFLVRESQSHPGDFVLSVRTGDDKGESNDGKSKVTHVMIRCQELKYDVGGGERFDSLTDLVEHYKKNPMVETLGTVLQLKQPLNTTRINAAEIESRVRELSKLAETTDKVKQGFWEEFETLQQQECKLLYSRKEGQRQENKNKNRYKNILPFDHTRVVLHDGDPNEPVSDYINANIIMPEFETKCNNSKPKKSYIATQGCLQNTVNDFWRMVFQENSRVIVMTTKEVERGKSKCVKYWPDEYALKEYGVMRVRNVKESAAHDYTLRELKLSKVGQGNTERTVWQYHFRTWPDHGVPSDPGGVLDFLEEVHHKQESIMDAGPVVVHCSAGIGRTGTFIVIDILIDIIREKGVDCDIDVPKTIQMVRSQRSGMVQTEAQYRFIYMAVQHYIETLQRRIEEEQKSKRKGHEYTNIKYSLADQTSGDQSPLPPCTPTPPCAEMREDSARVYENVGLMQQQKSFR
Experimental: as §1

[3] = system: A549 cells; assay: Cell viability assay (CCK-8); format: cell-based, Human
[4] = system: A549 cells; assay: Apoptosis flow cytometry (Annexin V-FITC/PI); format: cell-based, Human; conditions: A549, 72 h
Experimental: After 72 h treatment with different concentrations of compound 2, A549 cells were collected and rinsed three times with PBS. A 195 μL Annexin V-FITC buffer, 5 μL Annexin V-FITC, and 10 μL PI were sequentially added to each sample. The apoptotic cells were detected and analyzed by flow cytometry (ACEA NovoCyte, Hangzhou, China).

[5] = system: SHP2; assay: Western blot of cellular SHP2 / p-SHP2 expression; format: cell-based, Human; conditions: A549, 72 h
Experimental: (§2) After compound 2 treatment, RIPA buffer was used to lyse cells’ protein. Equal sample proteins were added in SDS-PAGE, separated with 100 V in 60 min, then transferred into PVDF membranes, and the membranes incubated with corresponding primary antibodies (Huabio, Hangzhou, China). GAPDH or Tubulin served as normal control.

[6] = system: p-ERK1/2, PI3K-AKT and STAT3 signaling pathways; assay: Western blot of ERK, AKT, STAT3 signaling pathway; format: cell-based, Human; conditions: A549, 72 h
Experimental: as §2

[7] = system: A549 cells; assay: A549 cell invasion assay (matrigel); format: cell-based, Human; conditions: 24 h incubation
Experimental: The inner chamber was pre-coated with matrigel. Cells were seeded in the inner chamber with FBS-free medium, and DMEM medium with 5% FBS was added to the outer chamber. After a 24 h treatment with compound 2, 4% paraformaldehyde was used to fix the cells and 0.1% crystal violet was used to stain A549 cells.

[8] = system: A549 cells; assay: A549 cell wound-healing assay; format: cell-based, Human; conditions: up to 72 h
Experimental: When the A549 cell covered 80% of cell culture dish, these cells were seeded in 6-well plates at 5 × 10^5 cells/well, respectively. After the cells adhered to the plates, wound formation was performed by 200 μL pipette tips. Then, A549 cells were treated with different concentrations of compound 2 for 72 h. The image of each gap was obtained by Leica TCS SP8 (Leica, Wetzlar, Germany) at 0, 24, 72 h, respectively.

[9] = system: cleaved caspase-3, 8, 9 and cleaved-PARP; assay: Western blot of apoptosis-related signaling pathway; format: cell-based, Human; conditions: A549, 72 h
Experimental: as §2

[10] = system: caspase-3; assay: Caspase-3 activity assay (Ac-DEVD-AFC); format: cell-based, Human; conditions: A549, 72 h
Experimental: Ac-DEVD-AFC, a caspase-3 fluorimetric substrate, was used to detect caspase-3 activity. After 72 h treatment with compound 2, cell supernatants were collected. The 20 μL cell supernatants, 100 μM Ac-DEVD-AFC, and reaction buffer constituted the 100 μL reaction system, and was then incubated at 37 °C for another 1 h. Caspase-3 activity was detected by Varioskan Lux with 405 nm excitation and 510 nm emission wavelengths.

[11] = molecular target: T2, SHP2; assay: Cellular thermal shift assay (CETSA); format: binding; design: endogenous in cells; host or cells: A549; conditions: A549 cell supernatant
Experimental: A total of 549 cells in 12 cm dish were collected and washed with PBS three times. After three rounds of liquid nitrogen-thaw and centrifugation at 13,000× g for 10 min at 4 °C, the cell supernatant was collected. The cell supernatant was divided into two aliquots of 50 μL each. Compound 2 or DMSO was added to each sample. The sample was heated from 50 °C to 62 °C, then cooled for 3 min [33]. Finally, all samples were processed under 4.7.

T1 sequence (P29350 whole entry): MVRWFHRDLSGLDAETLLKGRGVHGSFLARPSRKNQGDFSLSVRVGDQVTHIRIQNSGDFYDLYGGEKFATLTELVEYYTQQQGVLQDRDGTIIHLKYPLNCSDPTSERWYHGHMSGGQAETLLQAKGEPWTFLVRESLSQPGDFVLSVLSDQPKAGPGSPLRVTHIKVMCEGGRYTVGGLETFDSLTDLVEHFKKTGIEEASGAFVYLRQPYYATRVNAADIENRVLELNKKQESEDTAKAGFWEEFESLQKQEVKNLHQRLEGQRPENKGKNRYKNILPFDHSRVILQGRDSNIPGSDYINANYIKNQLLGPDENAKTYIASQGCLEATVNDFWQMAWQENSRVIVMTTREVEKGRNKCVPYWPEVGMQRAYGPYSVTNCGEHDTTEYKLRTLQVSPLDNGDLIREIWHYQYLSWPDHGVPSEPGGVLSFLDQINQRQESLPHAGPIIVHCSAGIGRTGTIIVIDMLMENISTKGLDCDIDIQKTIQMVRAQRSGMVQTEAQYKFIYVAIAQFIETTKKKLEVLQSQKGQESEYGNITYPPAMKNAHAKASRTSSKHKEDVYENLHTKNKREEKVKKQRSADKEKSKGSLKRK

Compound	inhibitory effect on SHP1 catalytic activity [1]	IC50 [2] [µM]	inhibitory effect on SHP1 ([1]; below 20 μM)	A549 cell viability ([3]; 24 h treatment)	IC50 ([3]; Homo sapiens, A549, CCK-8, 72 h, read-out: IC50 A549 cell proliferation) [µM]	apoptotic cells [4]	cellular SHP2 expression [5]	expression of SHP2 and phosphorylation of SHP2 [5]	p-ERK1/2 expression [6]	PI3K-AKT and STAT3 signaling pathways ([6]; various concentrations)	A549 cell invasion ability [7]	A549 cell migration [8]	cleaved-PARP [9]	cleaved caspase-3, 8, 9 ([9]; various doses)	caspase-3 expression [10]	SHP2 stability with increasing concentration (CETSA) [11]	SHP2 thermal stability (CETSA) ([11]; 50 °C to 62 °C)
CC1=C(C)C2=CC(=O)C3=C(C(=O)c4oc(C)cc4C3=O)[C@@]2(C)CC1 [Compound 1, 12, 16-epoxy-17(15→16), 18(4→3)-diabeo-abieta-3,5,8, 12, 15-pentaene-7, 11, 14-trione]	inhibited SHP1 catalytic activity at high concentrations	26 ± 1.41	–	–	–	–	–	–	–	–	–	–	–	–	–	–	–
CC1=C(C)C2=CC(=O)c3c(c(O)c4occ(C)c4c3O)[C@@]2(C)CC1 [Compound 2, Ajuforrestin A]	–	7.01 ± 0.85	no inhibitory effects	did not affect A549 cell viability	8.68 ± 0.96	obvious increase in apoptotic cells	suppressed SHP2 expression in a dose-dependent manner	down-regulated	markedly inhibited p-ERK1/2 expression	obviously inhibited	obviously decreased	significantly restrained A549 cell migration	activated	up-regulated	significant rise in caspase-3 expression in a dose-dependent manner	raised SHP2 stability	decrease in SHP2 expression with increasing temperature was suppressed
CC1=C(C)C2=CC(=O)c3c(O)c4c(c(O)c3[C@@]2(C)CC1=O)OC[C@H]4C [Compound 3, Ajudecumin A]	inhibited SHP1 catalytic activity at high concentrations	20 ± 1.31	–	–	–	–	–	–	–	–	–	–	–	–	–	–	–
